Experimental data reported in patent US20240261425A1, “CONJUGATE AND THE PREPARING METHOD AND USE THEREOF” (Nanjing University, priority 2021, published 2024).

Assays:
[1] = Stability of linker-modified sfGFP in buffer comprising GSH (thiol exchange, mass spectrometry); assay type: physicochemical; conditions: 37° C., different times
Experimental: GSH (0.8 μL, 100 mM) and PBS (20 μL, pH=8.0, 50 mM) were added to a solution of GFP-Linker (20 μL, 40 μM, in PBS) at 37° C. for 48 h. (FIG. 20)
The stability of a sfGFP modified PhESF as a linker was verified, using the linker 5 and 4 with higher reactivity as controls. After sfGFP had been modified, it was added to the buffer comprising GSH, and was placed at 37° C. for different time, and a mass spectrometry was performed.

sfGFP-TEV = experiment: Modification of sfGFP-TEV by derivatives of the reagent 1; conditions: 2 h
Experimental: When the benzene ring of the Reagent 1 was modified with different substituents (Michael acceptor 1-1 to 1-4), the difference of different substituents on the addition reaction (for example, the addition activity) was investigated (Table 5). Michael acceptor 1-1 to 1-4 were reacted with sfGFP-TEV.
MA 2 or MA 2 analogues (i.e. Compounds 1a, 1a-1, 1b, 1b-1) (1 μL, 20 mM in DMSO) and PBS (15 μL, pH=7.4, 50 mM) were added to a solution of GFP-TEV (4 μL, 250 μM in HEPES buffer). After incubation at 37° C. for 2 h, the solution was desalted to give the product before LC-MS analysis.

| SMILES | thiol exchange [1] | Addition number (sfGFP-TEV) | Conv. (%) (sfGFP-TEV) |
| --- | --- | --- | --- |
| CN1C(=O)C=CC1=O [linker 5, reference compound] | obviously undergo thiol exchange |  |  |
| O=S(=O)(F)/C=C/c1ccccc1 [Michael acceptor 1] | did not have a thiol exchange | 2 | >99% |
